The text below walks through data of ChEMBL document CHEMBL4342466, “Novel, Self-Assembling Dimeric Inhibitors of Human β Tryptase” (J Med Chem, 2020).

The structures appear in SMILES notation.

Series [1] is described as follows: Inhibition of human recombinant beta-tryptase pre-incubated for 3 hrs before N-tert-butoxycarbonyl-Gln-Ala-Arg-AMC substrate addition and measured every 30 secs for 15 mins by spectrometry.
Another series addresses CYP3A4 (Homo sapiens, UniProt P08684). The experiment in a line: Inhibition of CYP3A4 (unknown origin) at 10 uM relative to control. Type of series: ADME.
The target in the next series is T1, CYP1A2 (Homo sapiens, UniProt P05177).
T1 sequence (P05177 whole entry): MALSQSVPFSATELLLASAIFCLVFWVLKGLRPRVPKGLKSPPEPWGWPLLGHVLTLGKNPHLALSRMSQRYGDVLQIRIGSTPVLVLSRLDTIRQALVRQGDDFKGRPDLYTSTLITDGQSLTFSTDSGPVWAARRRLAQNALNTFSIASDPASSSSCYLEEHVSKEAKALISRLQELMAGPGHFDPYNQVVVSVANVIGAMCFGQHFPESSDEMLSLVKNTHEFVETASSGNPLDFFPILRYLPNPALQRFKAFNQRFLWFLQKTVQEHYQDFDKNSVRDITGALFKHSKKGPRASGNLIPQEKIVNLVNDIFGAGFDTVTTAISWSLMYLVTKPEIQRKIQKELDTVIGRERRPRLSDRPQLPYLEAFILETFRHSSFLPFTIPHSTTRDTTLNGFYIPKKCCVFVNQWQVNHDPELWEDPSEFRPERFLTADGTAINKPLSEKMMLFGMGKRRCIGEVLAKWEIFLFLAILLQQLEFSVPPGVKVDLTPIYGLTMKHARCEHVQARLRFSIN
As to the kind of experiment: Inhibition of CYP1A2 (unknown origin) at 10 uM relative to control. Type of series: ADME.

Series [2] can be described thus: Stability in mouse liver microsomes assessed as parent compound remaining at 15 uM in presence of NADPH incubated for 60 mins. The class given is ADME, Microsome. The note with it: read-out: Stability.
Series [3] is described as follows: Dissociation constant, pKa of the compound (B(OH)2) by pH metric assay. Type of series: physicochemical.
The nature of series [4]: Effective permeability assessed as mass retention by PAMPA method. The class given is ADME.
Series [5] in a line: Dissociation constant, pKa of the compound (B(OH)2) by UV metric assay. Type of series: physicochemical.
The next series has as its target CYP2C19 (Homo sapiens, UniProt P33261). As to the kind of experiment: Inhibition of CYP2C19 (unknown origin) at 10 uM relative to control. Type of series: ADME.
Series [6] can be described thus: Stability in human liver microsomes assessed as parent compound remaining at 15 uM in presence of NADPH incubated for 60 mins. The class given is ADME, Microsome. The note with it: liver microsomes, read-out: Stability.
For the next series, the target named is CYP2C9 (Homo sapiens, UniProt P11712). As to the kind of experiment: Inhibition of CYP2C9 (unknown origin) at 10 uM relative to control. Type of series: ADME.
Sequence of CYP2C9 (P11712 whole entry): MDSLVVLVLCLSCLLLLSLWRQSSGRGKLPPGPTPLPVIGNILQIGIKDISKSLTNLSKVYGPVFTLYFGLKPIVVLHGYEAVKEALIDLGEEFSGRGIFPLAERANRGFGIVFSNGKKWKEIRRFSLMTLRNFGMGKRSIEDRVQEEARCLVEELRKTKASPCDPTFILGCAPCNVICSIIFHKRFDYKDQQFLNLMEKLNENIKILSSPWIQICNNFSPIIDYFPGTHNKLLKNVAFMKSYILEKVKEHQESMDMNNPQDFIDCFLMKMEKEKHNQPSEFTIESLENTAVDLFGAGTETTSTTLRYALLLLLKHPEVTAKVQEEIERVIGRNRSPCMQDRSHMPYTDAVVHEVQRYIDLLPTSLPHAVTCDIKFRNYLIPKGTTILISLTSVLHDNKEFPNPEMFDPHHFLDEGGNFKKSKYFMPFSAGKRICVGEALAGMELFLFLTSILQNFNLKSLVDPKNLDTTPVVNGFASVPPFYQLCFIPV
Series [7] can be described thus: Stability in rat liver microsomes assessed as parent compound remaining at 15 uM in presence of NADPH incubated for 60 mins. Type of series: ADME, Microsome. The note with it: read-out: Stability.
The nature of series [8]: Stability in human liver microsomes assessed as parent compound remaining at 15 uM in absence of NADPH incubated for 60 mins. The note with it: liver microsomes, read-out: Stability. The class given is ADME, Microsome.
A short description of series [9]: Effective permeability from apical to basolateral side in PAMPA method. Type of series: ADME. The note with it: read-out: Peff.
Series [10] can be described thus: Stability in mouse liver microsomes assessed as parent compound remaining at 15 uM in absence of NADPH incubated for 60 mins. The class given is ADME, Microsome. The note with it: read-out: Stability.
The next series addresses CYP2D6 (Homo sapiens, UniProt P10635). As to the kind of experiment: Inhibition of CYP2D6 (unknown origin) at 10 uM relative to control. The class given is ADME.
Series [11] is described as follows: Stability in rat liver microsomes assessed as parent compound remaining at 15 uM in absence of NADPH incubated for 60 mins. Type of series: ADME, Microsome. The note with it: read-out: Stability.
Series [12] is described as follows: Apparent permeability from apical to basolateral side in MDCK cells. Type of series: ADME, cell-based, Canis lupus familiaris. The note with it: dog.
Series [13] can be described thus: Dissociation constant, pKa of the compound (NH3*) by pH metric assay. Type of series: physicochemical.
Series [14] can be described thus: Dissociation constant, pKa of the compound (OH) by pH metric assay. The class given is physicochemical.
The nature of series [15]: Dissociation constant, pKa of the compound (OH) by UV metric assay. Type of series: physicochemical.
Series [16] is described as follows: Plasma concentration in mouse xenografted with human HMC1 cells at 10 mg/kg, iv dosed at time 0 and again 24 hrs later and measured at 0 hrs after second dose by LC-MS/MS analysis. The class given is ADME, organism-based.
Series [17] in a line: Drug concentration in tumor of mouse xenografted with human HMC1 cells at 10 mg/kg, iv dosed at time 0 and again 24 hrs later and measured at 24 hrs after second dose by LC-MS/MS analysis. Type of series: ADME, organism-based, Neoplasm. The note with it: read-out: Drug uptake.
Series [18] is described as follows: Drug concentration in tumor of mouse xenografted with human HMC1 cells at 10 mg/kg, iv dosed at time 0 and again 24 hrs later and measured at 8 hrs after second dose by LC-MS/MS analysis. The note with it: read-out: Drug uptake. Type of series: ADME, organism-based, Neoplasm.
Series [19] can be described thus: Plasma concentration in mouse xenografted with human HMC1 cells at 10 mg/kg, iv dosed at time 0 and again 24 hrs later and measured at 24 hrs after second dose by LC-MS/MS analysis. Type of series: ADME, organism-based.
Series [20] is described as follows: Drug concentration in tumor of mouse xenografted with human HMC1 cells at 10 mg/kg, iv dosed at time 0 and again 24 hrs later and measured at 0 hrs after second dose by LC-MS/MS analysis. The class given is ADME, organism-based, Neoplasm. The note with it: read-out: Drug uptake.
Series [21] in a line: Drug concentration in tumor of mouse xenografted with human HMC1 cells at 10 mg/kg, iv dosed at time 0 and again 24 hrs later and measured at 2 hrs after second dose by LC-MS/MS analysis. The note with it: read-out: Drug uptake. The class given is ADME, organism-based, Neoplasm.
Series [22] is described as follows: Plasma concentration in mouse xenografted with human HMC1 cells at 10 mg/kg, iv dosed at time 0 and again 24 hrs later and measured at 2 hrs after second dose by LC-MS/MS analysis. The class given is ADME, organism-based.
Series [23] in a line: Drug concentration in tumor of mouse xenografted with human HMC1 cells at 10 mg/kg, iv dosed at time 0 and again 24 hrs later and measured at 48 hrs after second dose by LC-MS/MS analysis. Type of series: ADME, organism-based, Neoplasm. The note with it: read-out: Drug uptake.
Series [24] can be described thus: Plasma concentration in mouse xenografted with human HMC1 cells at 10 mg/kg, iv dosed at time 0 and again 24 hrs later and measured at 8 hrs after second dose by LC-MS/MS analysis. The class given is ADME, organism-based.
Series [25] in a line: Inhibition of beta-tryptase in human HMC1 cells assessed as effect on A23187-induced degranulation. The class given is cell-based.
A short description of series [26]: Inhibition of beta-tryptase in human HMC1 cells assessed as effect on tryptase activity by measured cell lysis. Type of series: cell-based.
The species entered for a further series is Homo sapiens. The experiment in a line: Inhibition of human recombinant beta-tryptase assessed as remaining enzyme activity at 10 uM pre-incubated for 3 hrs before N-tert-butoxycarbonyl-Gln-Ala-Arg-AMC substrate addition and measured after 8 hrs by spectrometry relative to control.

Sequence of CYP3A4 (P08684 whole entry): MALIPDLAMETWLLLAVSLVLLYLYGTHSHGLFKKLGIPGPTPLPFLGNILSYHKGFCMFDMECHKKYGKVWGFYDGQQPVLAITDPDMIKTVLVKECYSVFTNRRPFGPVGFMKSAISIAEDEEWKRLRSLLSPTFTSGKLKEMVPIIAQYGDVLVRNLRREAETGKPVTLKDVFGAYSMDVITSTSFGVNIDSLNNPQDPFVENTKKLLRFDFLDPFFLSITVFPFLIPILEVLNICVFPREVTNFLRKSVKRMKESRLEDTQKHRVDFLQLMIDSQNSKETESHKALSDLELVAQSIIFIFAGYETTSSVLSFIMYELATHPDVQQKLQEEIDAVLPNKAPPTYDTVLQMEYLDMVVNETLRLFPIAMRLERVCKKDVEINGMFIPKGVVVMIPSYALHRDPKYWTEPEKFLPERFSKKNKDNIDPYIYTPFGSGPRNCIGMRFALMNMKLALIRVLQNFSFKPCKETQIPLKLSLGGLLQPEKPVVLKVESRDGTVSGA
Sequence of CYP2D6 (P10635 whole entry): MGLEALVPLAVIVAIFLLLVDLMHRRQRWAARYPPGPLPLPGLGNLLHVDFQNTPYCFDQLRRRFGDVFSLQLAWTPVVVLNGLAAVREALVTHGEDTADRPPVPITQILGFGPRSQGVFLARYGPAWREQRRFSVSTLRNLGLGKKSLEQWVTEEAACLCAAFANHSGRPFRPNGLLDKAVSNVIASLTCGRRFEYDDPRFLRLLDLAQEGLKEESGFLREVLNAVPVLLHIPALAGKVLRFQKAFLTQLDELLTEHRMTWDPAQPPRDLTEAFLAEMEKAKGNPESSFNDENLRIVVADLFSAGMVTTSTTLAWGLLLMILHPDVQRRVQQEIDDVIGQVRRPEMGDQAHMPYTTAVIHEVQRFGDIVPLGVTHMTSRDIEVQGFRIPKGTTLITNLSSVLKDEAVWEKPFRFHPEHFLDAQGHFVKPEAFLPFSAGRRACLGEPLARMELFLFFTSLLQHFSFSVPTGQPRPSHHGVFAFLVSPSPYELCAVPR
Sequence of CYP2C19 (P33261 whole entry): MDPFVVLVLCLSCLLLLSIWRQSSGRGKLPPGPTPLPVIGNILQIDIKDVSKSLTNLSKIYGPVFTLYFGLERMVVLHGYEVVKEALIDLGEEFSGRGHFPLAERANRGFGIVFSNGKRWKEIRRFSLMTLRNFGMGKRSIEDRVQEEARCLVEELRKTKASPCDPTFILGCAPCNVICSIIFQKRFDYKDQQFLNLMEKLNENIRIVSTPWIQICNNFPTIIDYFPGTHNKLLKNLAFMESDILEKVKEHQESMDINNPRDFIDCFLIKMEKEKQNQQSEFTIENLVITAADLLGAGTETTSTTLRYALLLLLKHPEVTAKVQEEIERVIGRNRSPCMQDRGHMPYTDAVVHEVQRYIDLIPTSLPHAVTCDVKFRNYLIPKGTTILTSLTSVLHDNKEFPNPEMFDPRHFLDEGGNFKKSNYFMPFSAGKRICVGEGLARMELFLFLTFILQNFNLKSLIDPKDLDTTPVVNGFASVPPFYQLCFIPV

Regarding `NCc1cccc(C2CCN(C(=O)c3cccc4ccc(B(O)O)cc34)CC2)c1`, the IC50 in series [1] is 15.8 µM. The inhibition at 10 µM against CYP3A4 turned out to be 27%; against CYP1A2 it was 45%; against CYP2C19, 80%; against CYP2C9, 97%; at CYP2D6 it was 79%. The remaining at 1 h, 15 µM came to 99% in series [2]; 100% in series [6]; 100% in [7]; 97% in series [8]; 100% in [10]; 100% in [11]. For the same compound, the pKa amounted to 8.18 in [3], 8.51 in [5] and 9.53 in series [13]. Also, the Activity in [4] is listed as 96.2%. Further, the Papp in series [9] is 2.06 ×10⁻⁶ cm/s. In addition, the Papp A→B in series [12] was determined as 0.28 ×10⁻⁶ cm/s.

With `NCc1cccc(C2CCN(C(=O)/C=C/c3ccc(O)c(O)c3)CC2)c1`, in series [1], the IC50 was 3.84 µM. Moreover, the inhibition at 10 µM was determined as 19% at CYP3A4; 18% against CYP1A2; 77% on CYP2C19; 75% against CYP2C9; 47% on CYP2D6. The remaining at 1 h, 15 µM stood at 18% in [2]; 8% in [6]; 37% in series [7]; 11% in series [8]; 36% in series [10]; 73% in series [11]. Also, the pKa in [14] was determined as 8.11; in series [15] it was 7.37; in [13] it was 9.67. Besides, in series [4], the Activity came to 26.3%. Besides, in series [9], the Papp was 0.01 ×10⁻⁶ cm/s. The Papp A→B in series [12] was found to be 0.31 ×10⁻⁶ cm/s.

In the case of `NCc1ccc2c(c1)C1(CCN(C(=O)c3cccc(-c4cccc(B(O)O)c4)c3)CC1)CO2.O=C(O)C(F)(F)F`, the concentration at 0 h in series [16] is 0.53 nM; in series [20], 27.9 nM. For the same compound, the figures for the concentration at 24 h in [17] and in [19] were 2.14 nM and 0.14 nM, respectively. Further, the values for the concentration at 8 h in series [18] and in series [24] were 107 nM and 43 nM, respectively. For the same compound, the concentration at 2 h is 554 nM in [21] and 1290 nM in series [22]. In series [23], the concentration at 48 h came to 0.56 nM.

Turning to `NCc1ccc2c(c1)C1(CCN(C(=O)c3cccc(-c4cccc(B5Oc6cc(C(=O)N7CCC8(CC7)COc7ccc(CN)cc78)cc(Cl)c6O5)c4)c3)CC1)CO2`, the IC50 came out at 0.24 µM in series [25] and 5.45 µM in [26]. The Activity in the series filed under Homo sapiens was 50%.
